Literature values as cited in patent US20070287651A1, “Bleaching compositions” (The Procter & Gamble Company, priority 2006, published 2007).

Details: deionized water at 25° C. (definition)

- solubility in water: lower than 1 gram per liter
SMILES: c1ccc2oc(-c3ccc(-c4nc5ccccc5o4)s3)nc2c1 [Tinopal SOP, benzoxazole,2,2′-(thiophenaldyl)bis]
